Experiments:
[1] = target: T1, Human 5-HT4(d) (Homo sapiens, UniProt Q13639); assay: Agonist-induced cAMP elevation in human 5-HT4(d) transfected HEK293 cells; format: cell-based; conditions: for Emax: HEK293, cAMP production normalized to the amount produced by 1,000 nM serotonin; for EC50: cAMP elevation (HTRF), human 5-HT4(d) transfected HEK293 cells
T1 construct: expressed in transfected cells
Method: Human 5-HT4(d) transfected HEK293 cells were established in-house. The cells were grown at 37° C. and 5% CO2 in DMEM supplemented with 10% FCS, 20 mM HEPES (pH 7.4), 200 μg/ml hygromycin B (Gibco), 100 units/ml penicillin and 100 μg/ml streptomycin.
The cells were grown to 60-80% confluence. On the previous day before treatment with compounds dialyzed FCS (Gibco) was substituted for normal and the cells were incubated overnight.
Compounds were prepared in 96-well plates (12.5 μl/well). The cells were harvested with PBS/1 mM EDTA, centrifuged and washed with PBS. At the beginning of the assay, cell pellet was resuspended in DMEM supplemented with 20 mM HEPES, 10 μM pargyline (Sigma) and 1 mM 3-isobutyl-1-methylxanthine (Sigma) at the concentration of 1.6×10^5 cells/ml and left for 15 min at room temperature. The reaction was initiated by addition of the cells into plates (12.5 μl/well). After incubation for 15 min at room temperature, 1% Triton X-100 was added to stop the reaction (25 μl/well) and the plates were left for 30 minutes at room temperature. Homogenous time-resolved fluorescence-based cAMP (Schering) detection was made according to the manufacturer's instruction. ARVOsx multilabel counter (Wallac) was used to measure HTRF (excitation 320 nm, emission 665 nm/620 nm, delay time 50 μs, window time 400 μs).
Data was analyzed based on the ratio of fluorescence intensity of each well at 620 nm and 665 nm followed by cAMP quantification using cAMP standard curve. Enhancement of cAMP production elicited by each compound was normalized to the amount of cAMP produced by 1,000 nM serotonin (Sigma).

T1 sequence (Q13639 1-360 isoform Q13639-3): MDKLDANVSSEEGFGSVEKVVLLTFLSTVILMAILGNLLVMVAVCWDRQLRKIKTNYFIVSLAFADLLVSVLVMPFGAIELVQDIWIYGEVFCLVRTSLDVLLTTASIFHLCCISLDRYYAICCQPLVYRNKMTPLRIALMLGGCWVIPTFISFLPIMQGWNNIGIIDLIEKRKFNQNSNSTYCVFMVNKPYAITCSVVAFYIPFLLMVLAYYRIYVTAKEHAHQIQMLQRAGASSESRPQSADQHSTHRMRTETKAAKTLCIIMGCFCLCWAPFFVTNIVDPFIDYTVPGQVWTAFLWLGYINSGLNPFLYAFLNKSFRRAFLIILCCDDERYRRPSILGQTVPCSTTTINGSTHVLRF

Structure (SMILES)	Emax [1]	EC50 [1]	melting point
OC1(COc2cccc3onc(OCC4CCN(CC5(O)CCOCC5)CC4)c23)CCCC1 [Example 31, 4-({4-[{(4-[(1-Hydroxycyclopentyl)methoxy]-1,2-benzisoxazol-3-yl}oxy)methyl]piperidin-1-yl}-methyl)tetrahydro-2H-pyran-4-ol]	31%	27 nM	136.5 °C
O=C1CCCC1Oc1cccc2onc(OCC3CCN(CC4(O)CCOCC4)CC3)c12 (stereo not drawn) [Example 38, 2-{[3-({1-[(4-Hydroxytetrahydro-2H-pyran-4-yl)methyl]piperidin-4-yl}methoxy)-1,2-benzisoxazol-4-yl]oxy}cyclopentanone]	40%	0.84 nM	133.1 °C
O=C(O)C1(CN2CCC(CNc3noc4cccc(OCC(F)(F)F)c34)CC2)CCOCC1 [Example 53, 4-{[4-({[4-(2,2,2-Trifluoroethoxy)-1,2-benzisoxazol-3-yl]amino}methyl)piperidin-1-yl]methyl}-tetrahydro-2H-pyran-4-carboxylic acid]	59%	2.8 nM	171.9 °C
O=C(O)[C@H]1CC[C@H](CN2CCC(COc3noc4cccc(OC5CCOCC5)c34)CC2)CC1 [Example 29, trans-4-{[4-({[4-(Tetrahydro-2H-pyran-4-yloxy)-1,2-benzisoxazol-3-yl]oxy}methyl)piperidin-1-yl]methyl}cyclohexanecarboxylic acid]	70%	11 nM	154.6 °C
O=C(O)C1(CCN2CCC(COc3noc4cccc(OCC(F)(F)F)c34)CC2)CCOCC1 [Example 5, 4-{2-[4-({[4-(2,2,2-Trifluoroethoxy)-1,2-benzisoxazol-3-yl]oxy}methyl)piperidin-1-yl]ethyl}tetrahydro-2H-pyran-4-carboxylic acid]	70%	2.7 nM	220.5 °C
O=C(O)C1(CN2CCC(COc3noc4cccc(OCC5CCC5)c34)CC2)CCCC1 [Example 17, 1-{[4-({[4-(Cyclobutylmethoxy)-1,2-benzisoxazol-3-yl]oxy}methyl)piperidin-1-yl]methyl}cyclo-pentanecarboxylic acid]	41%	3.6 nM	173.8 °C
CC(C)COc1cccc2onc(OCC3CCN(CC4(C(=O)O)CCC4)CC3)c12 [Example 12, 1-[(4-{[(4-Isobutoxy-1,2-benzisoxazol-3-yl)oxy]methyl}piperidin-1-yl)methyl]cyclobutanecarboxylic acid]	45%	2.3 nM	168.8 °C
CC(C)COc1cccc2onc(OCC3CCN(CC4(C(=O)O)CCCC4)CC3)c12 [Example 9, 1-[(4-{[(4-Isobutoxy-1,2-benzisoxazol-3-yl)oxy]methyl}piperidin-1-yl)methyl]cyclopentane-carboxylic acid]	36%	2.9 nM	156.3 °C
CC(C)(CN1CCC(COc2noc3cccc(OCC4CCC4)c23)CC1)C(=O)O [Example 19, 3-[4-({[4-(Cyclobutylmethoxy)-1,2-benzisoxazol-3-yl]oxy}methyl)piperidin-1-yl]-2,2-dimethyl-propanoic acid]	45%	0.16 nM	139.8 °C
O[C@@H]1CCC[C@@H]1Oc1cccc2onc(OCC3CCN(CC4(O)CCOCC4)CC3)c12 (relative stereo) [Example 36, 4-({4-[({4-[(cis-2-Hydroxycyclopentyl)oxy]-1,2-benzisoxazol-3-yl}oxy)methyl]piperidin-1-yl}methyl)-tetrahydro-2H-pyran-4-ol]	52%	1.9 nM	140.8 °C
O=C(O)[C@H]1CC[C@H](CN2CCC(COc3noc4cccc(OCC(F)(F)F)c34)CC2)CC1 [Example 4, trans-4-{[4-({[4-(2,2,2-Trifluoroethoxy)-1,2-benzisoxazol-3-yl]oxy}methyl)-piperidin-1-yl]methyl}cyclohexanecarboxylic acid]	77%	1.2 nM	158 °C

From patent US8816090B2, “Benzisoxazole derivatives” (Pfizer Inc., priority 2005, dated 2014)
